{"source": "patent US8729334B2", "about": "“Method for determining genotoxicity using non-fluorescent proteins” (priority 2010, dated 2014)", "key": {"[1]": {"test_system": "CH4003 (TA98 carrying EGFP^mut3 on chromosome)", "details": "for Number of revertants, EGFP^mut2 TA98, phenotype EGFP^+: total 10^6 bacteria plated on NA plates", "method": "(§1) The EGFP^mut DNA was inserted into the chromosome of Salmonella typhimurium LT2 strain via its putA site approximately 5 minutes away from the termination (ter) region of the chromosome (Elliott, 1992). lacP-EGFP^mut::CAT DNA was amplified with primers that contain sequences for the putA site of S. enterica serovar Typhimurium: 5′-primer […] […] […], which consisted of 50-nt or 55-nt of putA (putA sequences are underlined) and 25-nt or 22-nt sequences flaking lacP-nonEGFP::cat using pEGFP^mut::CAT plasmid as template. The 1.4-kbp PCR products were purified and transformed into bacteria carrying a Red helper plasmid (pKD46) by electroporation (Datsenko and Wanner, 2000). The Linear DNA contained a chloramphenicol gene as a marker for the P22 transduction into the S. typhimurium strain of Ames test, TA100 and TA98 to construct CH4001 and 4003, respectively (Davis, et al., 1980).\n(§2) Subsequently, the gene for EGFP^mut was placed in the chromosome of relevant Salmonella typhimurium to establish mutation test strains analogous to that of Ames test. Linear DNA transformation method using λ Red system (Datsenko and Wanner, 2000) was employed to place the EGFP^mut genes at putAP sites (Elliott, 1992) in the wild type Salmonella chromosome, LT2. Then, each EGFP^mut1 and EGFP^mut3 gene was moved to TA100 and TA98 using generalized transducing phage, P22, resulting in a construction of CH 4001 and 4003.\n(§3) We tested mutation frequency of these two strains together with conventional Ames test strains, TA100 and TA98, in the presence of mutagens, ENU and ICR191. ENU is known to induce base-pair substitution while ICR191 frameshift mutation (OECD, 1997). His^+ revertants were selected on minimal plates and EGFP^+ revertants were screened on NA plates which allowed visualization of about 10^6 colonies individually. […], a test strain for frameshift mutation, together with TA98, was incubated with 1 mg/plate ICR191."}, "[2]": {"test_system": "MutaFish^3 carrying EGFP^mut3", "test": "Genotoxicity test in transgenic zebrafish embryos, MutaFish^3", "format": "in vivo, zebrafish (Danio rerio)", "method": "Almost all embryos were hatched during this incubation period.\nOne highly transgene-positive line was established."}, "[3]": {"test_system": "CH4003 (TA98 carrying EGFP^mut3 on chromosome)", "test": "His+ reversion, strain CH4003", "details": "for Number of revertants, EGFP^mut2 TA98, phenotype His^+: total 10^6 bacteria plated on minimal media plates", "method": "as §1\n(§4) The plate-incorporation assay was carried out as described (OECD, 1997). Briefly, bacterial cells from stock cultures were grown for 12 hr in liquid medium at 37° C. A volume of 0.1 mL bacterial suspension was added to 2 mL of top agar (Difco) medium containing 0.6% agar, 0.6% NaCl and 20.96 μg of l-histidine and d-biotin (Sigma). Test solution (or solvent control, or positive control agent) and the S9-mix (0.5 mL/plate; 10% (v/v) S9) or potassium phosphate buffer (0.5 mL/plate; 0.2 M, pH 7.4; Sigma) were also added to the top agar which was then mixed and poured onto the top of Vogel-Bonner minimal medium agar plates (3 replicates/dose for the treated and 6 replicates for the solvent control). Colonies were counted 48 hr after incubation at 37° C. The highest volume of the test solution added per plate was initially limited to 100 μL, and then increased up to 200 μL in confirmation studies.\nSubsequently, the gene for EGFP^mut was placed in the chromosome of relevant Salmonella typhimurium to establish mutation test strains analogous to that of Ames test. […]"}, "[4]": {"test_system": "S. typhimurium TA98", "test": "Ames test, His+ reversion, tester strain TA98", "details": "for Number of revertants, TA98, phenotype His^+: total 10^6 bacteria plated on minimal media plates", "method": "(§5) S. typhimurium strain of Ames test, TA98 and TA, were purchased and grown following manufacture's instruction (Xenometrix AG, Switzerland). CH4001 and CH4003 strains carrying EGFP^mut DNA on their chromosomes (Table 1) were created as described in Result section.\nas §4, §3"}, "[5]": {"test_system": "MutaFish^1 carrying EGFP^mut1", "test": "Genotoxicity test in transgenic zebrafish embryos, MutaFish^1", "from_the_text": "EGFP^mut plasmid constructed as described above was microinjected into one-cell stage fertilized eggs laid by the AB* zebrafish line (Oregon University, Corvallis, Oreg.) with transposase mRNA. The microinjected eggs were raised to sexual maturity and mated to wild type AB* zebrafish. Subsequently, the resulting embryos were screened for the presence of mCherry fluorescence in the heart. The screened embryos (hereinafter named as F1) were processed for RT-PCR, Western blotting and Southern blotting to verify the genomic integration of mutant EGFP. The F1 embryos were raised again to sexual maturity and mated to each other to generate F2 embryos homozygous for EGFP^mut. F3 embryos, generated by in-cross between F2 zebrafish, were raised again to sexual maturity.\nFertilized eggs were obtained by pair mating transgenic F3 female and nontransgenic male fish. We divided 24 hr embryos, still coated with chorion, into three groups (266 embryos/group) and exposed them for 30 min at 26° C. to 10 ml of 0, 2, or 5 mM ENU in 0.1% Instant Ocean salts (Senja Pharmaceutical, Hyogo, Japan). Mutagenized embryos were then rinsed and kept in a 28.5° C. incubator for three days. […] The pooled surviving larvae were checked for morphological abnormality and EGFP^+ larvae were selected and then scored by FACSAria (BD Biosciences).\nWe injected Tol2 plasmid encoding EGFP^mut and transposase mRNA into one-cell stage fertilized zebrafish eggs. F1 progeny with germline transmission were selected by PCR and Southern blot analysis as described in the Experimental Protocol.\nTo evaluate whether these transgenic fishes could detect mutations in vivo, 24 hr embryos obtained by pair mating the transgenic and nontransgenic fish were treated with mutagens for 30 min: MutaFish^1 with ENU (5 mM) and MutaFish^3 with ICR191 (10 mM). Three days after treatment, the number of EGFP^+ larvae was determined (Table 4)."}, "[6]": {"test_system": "CH4001 (TA100 carrying EGFP^mut1 on chromosome)", "method": "as §1, §2, §3"}, "[7]": {"test_system": "CH4001 (TA100 carrying EGFP^mut1 on chromosome)", "test": "His+ reversion, strain CH4001", "method": "as §1\nThe plate-incorporation assay was carried out as described (OECD, 1997). Briefly, bacterial cells from stock cultures were grown for 12 hr in liquid medium at 37° C. A volume of 0.1 mL bacterial suspension was added to 2 mL of top agar (Difco) medium containing 0.6% agar, 0.6% NaCl and 20.96 μg of l-histidine and d-biotin (Sigma). […] Colonies were counted 48 hr after incubation at 37° C. […]"}, "[8]": {"test_system": "S. typhimurium TA100", "test": "Ames test, His+ reversion, tester strain TA100", "method": "as §5, §4\nWe tested mutation frequency of these two strains together with conventional Ames test strains, TA100 and TA98, in the presence of mutagens, ENU and ICR191. […]"}, "[9]": {"details": "EGFP^mut1 MutaFish, 24 hr embryos, 5 mM ENU for 30 min, scored three days after treatment"}, "[10]": {"details": "0.1 mg/plate ENU, total 10^6 bacteria plated on minimal media plates"}}, "note": "Like-named read-outs stand apart in the source and are kept apart here.", "data": [{"smiles": "COc1ccc2nc3cc(Cl)ccc3c(NCCCNCCCl)c2c1", "note": "[ICR191]", "values": [{"measurement": "Number of revertants, EGFP^mut2 TA98, phenotype EGFP^+", "setting": "[1]; 1 mg/plate ICR191", "value": 456.3}, {"measurement": "frequency of EGFP^+ revertants", "setting": "[1]; in the presence of ICR191 (1 mg/plate), CH4003", "value": "456.3×10^−6"}, {"measurement": "frequency of EGFP^+ larvae", "setting": "[2]; MutaFish^3, ICR191 10 mM for 30 min, three days after treatment", "value": "2.32×10^−3"}, {"measurement": "Morphological abnormality (%)", "setting": "[2]; zebrafish, in vivo", "value": 24.2, "unit": "%"}, {"measurement": "Mutant frequency × 10^−5", "setting": "[2]; zebrafish, in vivo", "value": "232 × 10^−5"}, {"measurement": "Survival rate (%)", "setting": "[2]; zebrafish, in vivo", "value": 79.2, "unit": "%"}, {"measurement": "mutation frequency of His^+ revertants in CH4003", "setting": "[3]; 1 mg/plate ICR191", "value": "420.8×10^−6"}, {"measurement": "Number of revertants, EGFP^mut2 TA98, phenotype His^+", "setting": "[3]; 1 mg/plate ICR191", "value": 377.6}, {"measurement": "frequency of His^+ revertants in TA98", "setting": "[4]; 1 mg/plate ICR191", "value": "327.6×10^−6"}, {"measurement": "Number of revertants, TA98, phenotype His^+", "setting": "[4]; 1 mg/plate ICR191", "value": 420.8}]}, {"smiles": "CCN(N=O)C(N)=O", "note": "[ENU]", "values": [{"measurement": "Morphological abnormality (%)", "setting": "[5]; [9]", "value": 20.9, "unit": "%"}, {"measurement": "Survival rate (%)", "setting": "[5]; [9]", "value": 97.3, "unit": "%"}, {"measurement": "Mutant frequency × 10^−5", "setting": "[5]; EGFP^mut1 MutaFish, EGFP^+ larvae, 5 mM ENU for 30 min, three days after treatment", "value": "63 × 10^−5"}, {"measurement": "frequency of EGFP^+ larvae", "setting": "[5]; MutaFish^1, ENU 5 mM for 30 min, three days after treatment", "value": "6.3×10^−4"}, {"measurement": "Number of revertants, EGFP^mut2 TA98, phenotype EGFP^+", "setting": "[1]; 0.1 mg/plate ENU", "value": 3.2}, {"measurement": "Number of revertants, EGFP^mut1 TA100, phenotype EGFP^+", "setting": "[6]; 0.1 mg/plate ENU, total 10^6 bacteria plated on NA plates", "value": 7.1}, {"measurement": "frequency of EGFP^+ reversion", "setting": "[6]; in the presence of ENU (0.1 mg/plate), CH4001", "value": "7.1×10^−6"}, {"measurement": "Number of revertants, EGFP^mut1 TA100, phenotype His^+", "setting": "[7]; [10]", "value": 5.2}, {"measurement": "frequency of His^+ revertants in CH4001", "setting": "[7]; 0.1 mg/plate of ENU", "value": "5.2×10^−6"}, {"measurement": "Number of revertants, TA100, phenotype His^+", "setting": "[8]; [10]", "value": 5.6}, {"measurement": "frequency of His^+ revertants in TA100", "setting": "[8]; 0.1 mg/plate of ENU", "value": "5.6×10^−6"}, {"measurement": "Number of revertants, EGFP^mut2 TA98, phenotype His^+", "setting": "[3]; 0.1 mg/plate ENU", "value": 3.5}, {"measurement": "Number of revertants, TA98, phenotype His^+", "setting": "[4]; 0.1 mg/plate ENU", "value": 3.2}]}]}
